From PMC7155171, “Probing the Open Global Health Chemical Diversity Library for Multistage-Active Starting Points for Next-Generation Antimalarials” (ACS Infectious Diseases, 2020)
Like-named read-outs stand apart in the source and are kept apart here.

Experiments:
[1] = test system: P. falciparum Dd2 (PfLuc) line expressing firefly luciferase, asexual blood stage; assay: microbe, parasite or virus in culture; format: cell-based, Plasmodium falciparum; details: Plasmodium falciparum
P. falciparum Dd2 = assay: SYBR green I asexual blood stage proliferation assay (96 h); format: cell-based, Plasmodium falciparum; details: Plasmodium falciparum, DD2, 11-pt dose response, 96hr
[2] = DD2, read-out: CDD P. falciparum Luciferase ABS 11-pt Reconfirmation Dose Response (48hr): IC50 (μM), 11-pt dose response, 48hr
[3] = DD2, 8-pt dose response, 96hr, read-out: CDD P. falciparum Luciferase ABS 8-pt Reconfirmation Dose Response (96hr): IC50
[4] = DD2, 11-pt dose response, 48hr, read-out: CDD P. falciparum Luciferase ABS 11-pt Reconfirmation Dose Response (48hr): Maximum inhibition (%)
[5] = DD2, 11-pt dose response, 96hr, read-out: CDD P. falciparum Luciferase ABS 11-pt Reconfirmation Dose Response (96hr): IC50
[6] = DD2, 11-pt dose response, 96hr, read-out: CDD P. falciparum Luciferase ABS 11-pt Reconfirmation Dose Response (96hr): Maximum inhibition (%)
[7] = Sybr Green I, read-out: CDD P. falciparum Sybr Green I ABS 11-pt Reconfirmation Dose Response (96hr): IC50
[8] = Sybr Green I, read-out: CDD P. falciparum Sybr Green I ABS 11-pt Reconfirmation Dose Response (96hr): Maximum inhibition (%)
[9] = DD2, 8-pt dose response, 96hr, read-out: CDD P. falciparum Luciferase ABS 8-pt Reconfirmation Dose Response (96hr): Maximum inhibition (%)
[10] = 96 h incubation, Dd2 luciferase, read-out: 96 hour Pfluc IC50
[11] = DD2, read-out: P. falciparum Luciferase ABS 11-pt Reconfirmation Dose Response (48hr): IC50, 11-pt dose response, 48hr
[12] = DD2, 8-pt dose response, 96hr, read-out: P. falciparum Luciferase ABS 8-pt Reconfirmation Dose Response (96hr): IC50
[13] = DD2, 8-pt dose response, 96hr, read-out: P. falciparum Luciferase ABS 8-pt Reconfirmation Dose Response (96hr): Maximum inhibition (%)
[14] = DD2, 11-pt dose response, 96hr, read-out: P. falciparum Luciferase ABS 11-pt Reconfirmation Dose Response (96hr): IC50
[15] = DD2, 11-pt dose response, 96hr, read-out: P. falciparum Luciferase ABS 11-pt Reconfirmation Dose Response (96hr): Maximum inhibition (%)
[16] = read-out: P. falciparum Sybr Green I ABS 11-pt Reconfirmation Dose Response (96hr): IC50
[17] = read-out: P. falciparum Sybr Green I ABS 11-pt Reconfirmation Dose Response (96hr): Maximum inhibition (%)
[18] = DD2, 11-pt dose response, 48hr, read-out: P. falciparum Luciferase ABS 11-pt Reconfirmation Dose Response (48hr): Maximum inhibition (%)

SMILES	IC50 [1, 2] [µM]	IC50 [1, 3] [µM]	Emax [1, 4] [%]	IC50 [1, 5] [µM]	Emax [1, 6] [%]	IC50 (P. falciparum Dd2; [7]) [nM]	Emax (P. falciparum Dd2; [8]) [%]	Emax [1, 9] [%]	IC50 [1, 10] [µM]	IC50 [1, 11] [µM]	IC50 [1, 12] [µM]	Emax [1, 13] [%]	IC50 [1, 14] [µM]	Emax [1, 15] [%]	IC50 (P. falciparum Dd2; [16]) [nM]	Emax (P. falciparum Dd2; [17]) [%]	Emax [1, 18] [%]
CNC(=O)CCN(C)CC1(c2ccc(Br)cc2)CC1 [DDD01064880]	5.21	0.54	64.4	4.63	88.9	6590	73.3	–	–	–	–	–	–	–	–	–	–
Cc1cc(C)c(CNCC(O)c2ccc(F)c(F)c2)c(C)c1 (stereo not shown) [DDD01065539]	0.316	0.15	97.4	0.143	100	312	99.5	96.6	–	–	–	–	–	–	–	–	–
CC(NCCc1nccn1Cc1ccccc1)c1ccsc1 (stereo not shown) [DDD01065612]	4.05	1.09	68.1	0.666	88.3	960	77.4	87.3	–	–	–	–	–	–	–	–	–
CN1CCC(O)(CNCc2ccc(F)c(C(F)(F)F)c2)CC1 [DDD01065665]	> 12.5	0.71	33.7	4.45	88.8	3170	86.1	90.5	–	–	–	–	–	–	–	–	–
CC1(C)CN(C(CNC2=NCCN2)c2ccc(Cl)cc2)CCO1 (stereo not shown) [DDD01066238]	0.786	0.55	64.5	3.52	81.2	3750	50.5	80.3	–	–	–	–	–	–	–	–	–
O=C(CC1CCCC1)NCCNCc1cccc2c1OCCO2 [DDD01067280]	> 12.5	1.09	64.2	> 1.39	89.2	> 4160	67	84.7	–	–	–	–	–	–	–	–	–
c1cc2c(cc1C1(CNC3=NCCN3)CCCC1)OCCO2 [DDD01067440]	8.77	0.57	68.7	1.63	92	1240	65.6	86.8	–	–	–	–	–	–	–	–	–
Clc1ccc(C2(CNC3=NCCN3)CC2)cc1 [DDD01067441]	1.96	0.55	96.7	0.613	99.9	760	101	95.1	–	–	–	–	–	–	–	–	–
Clc1ccc(C2(CNC3=NCCN3)CCCC2)cc1 [DDD01067443]	5.56	0.25	90	0.995	98.3	2260	98.5	94.9	1	–	–	–	–	–	–	–	–
Clc1ccc(C2(CNC3=NCCN3)CCCCC2)cc1 [DDD01067446]	2.9	0.22	97.1	0.731	99.6	1290	99.8	96.3	–	–	–	–	–	–	–	–	–
Fc1ccc(C2(CNC3=NCCN3)CCCC2)cc1 [DDD01067448]	–	–	–	–	–	–	–	–	–	6.73	1.43	88.3	1.18	95.9	3300	94.1	–
CCN1CCCN(S(=O)(=O)c2cc3ccccc3o2)CC1 [DDD01067562]	8.55	0.58	65	1.34	85.4	1460	73.1	87.2	–	–	–	–	–	–	–	–	–
O=C(Nc1nccs1)C1CCCN1Cc1ccccn1 (stereo not shown) [DDD01068868]	0.884	0.3	91.2	0.303	99.3	888	96.4	–	–	–	–	–	–	–	–	–	–
Cc1cccc(OC(C)C(=O)NCC2(N(C)C)CCCC2)c1 (stereo not shown) [DDD01069466]	> 12.5	0.95	46.7	2.5	85.7	2140	64.8	–	–	–	–	–	–	–	–	–	–
CN1CCN(CC(NCc2ccc(F)c(F)c2)c2ccccc2)CC1 (stereo not shown) [DDD01069631]	5.37	0.58	78.3	0.913	94.6	4410	85.4	89.5	0.91	–	–	–	–	–	–	–	–
CC(C)(C)C(=O)NCCNCc1ccc(Cl)c2cccnc12 [DDD01070293]	> 12.5	1.05	37.6	1.51	83.4	2250	64.4	82	–	–	–	–	–	–	–	–	–
CCN1CCN(c2ccc(F)cc2C(C)NCc2ccccn2)CC1 (stereo not shown) [DDD01070491]	> 12.5	0.83	53	1.9	–	> 4160	73.8	82.8	–	–	–	–	–	–	–	–	–
CCN1CCN(c2ccc(F)cc2C(C)NCc2cscn2)CC1 (stereo not shown) [DDD01070576]	–	–	–	–	–	–	–	–	–	> 12.5	1.25	87.1	2.44	–	7180	78.2	47.9
Cc1cc(Cl)ccc1S(=O)(=O)NCC(C)N1CCN(C)CC1 (stereo not shown) [DDD01071406]	–	–	–	–	–	–	–	–	–	6.35	1.66	87.3	4.93	86.6	> 4160	–	56.6
COc1ccc(C(=O)NCCCOC(C)c2ccccc2)c(OC)c1 (stereo not shown) [DDD01071935]	9.88	1.03	67.4	3.26	90.2	> 4160	72.8	–	–	–	–	–	–	–	–	–	–
OCCN1CCC(CNCc2ccc(Br)cc2)CC1 [DDD01072406]	2.84	0.53	94.9	0.749	99.6	2010	92.7	95.5	–	–	–	–	–	–	–	–	–
O=C(c1ccccc1)C1CCN(Cc2cc3c(cc2O)CCC3)CC1 [DDD01073482]	1.73	0.6	94.9	0.607	99.4	2300	–	93.1	–	–	–	–	–	–	–	–	–
